In patent publication US8466201B2, “Potassium ion channel modulators and uses thereof” (Ramot at Tel-Aviv University ltd., priority 2007, dated 2013):

Molecular target: KCNQ2/KCNQ3 potassium channel current expressed in mammalian cells (Homo sapiens, UniProt O43525+O43526)
Test: KCNQ2/KCNQ3 current enhancement, automated parallel patch-clamp (PatchXpress 7000A)
Type: cell-based
Settings: mean±s.e.m
Experimental: The objective of this study was to examine the in vitro effects of the Example compounds on the KCNQ2/KCNQ3 potassium channel current expressed in mammalian cells using the PatchXpress 7000A (Molecular Devices), an automatic parallel patch-clamp system. The test compounds were evaluated at 30 or 10 μM (n≦2). The duration of exposure to the test compound was 5 minutes. […] The results for a positive control, flupirtine (Table 2) applied to naïve cells in the same study confirm the sensitivity of the test system to detect KCNQ2/KCNQ3 current enhancement.
All experiments were performed at ambient temperature. Each cell acted as its own control.
A 30 μM or 10 μM concentration of test compound was applied via disposable polyethylene micropipette tips to naïve cells. Each solution exchange, performed in quadruplicate, consisted of aspiration and replacement of 45 μL of the total 50 μL volume of the extracellular well of the Sea/chip16.
Vehicle was applied to naïve cells (n≦2), for a 5 minute exposure interval.
Each solution exchange, performed in quadruplicate, consisted of aspiration and replacement of 45 μL of the total 50 μL volume of the extracellular well of the Sea/chip16. After vehicle application, the positive control was applied in the same manner, to verify sensitivity of the assay.
In preparation for a recording session, intracellular solution was loaded into the intracellular compartments of the Sea/chip16 planar electrode. Cell suspension was pipetted into the extracellular compartments of the Sea/chip16 planar electrode. After establishment of the whole-cell configuration, membrane currents were recorded using dual-channel patch-clamp amplifiers in the PatchXpress® system. Before digitization, the current records were low-pass filtered at one-fifth of the sampling frequency.
Data acquisition and analysis were performed using the pCLAMP suite of programs (Axon Instruments, Union City, Calif.). The steady-state current before and after test article application was used to calculate the percentage current enhancement at each concentration. The results obtained from different cells were averaged and presented as mean±s.e.m (see Tables 1 and 2).

[1] = 30 μM test compound, 5 minutes exposure, ambient temperature

Row | SMILES | Mean % Enhancement of KCNQ2/KCNQ3 [1] [%] | further results
1 | O=S(=O)(NCCO)c1cccc(Nc2c(Cl)cc(Cl)cc2Cl)c1 [Example 16, N-(2-Hydroxyethyl)-3-(2,4,6-trichlorophenylamino)-benzenesulfonamide] | 87.4 ± 14 | 
2 | CCOC(=O)Nc1ccc(NCc2ccc(F)cc2)nc1N [Flupirtine, flupirtine, reference compound] |  | Mean % Enhancement of KCNQ2/KCNQ3 (positive control, 10 μM, applied after vehicle to naïve cells): 127 ± 16%
3 | O=S(=O)(NCCO)c1ccccc1Nc1c(Cl)cccc1Cl [Example 9, N-(2-Hydroxyethyl)-2-(2,6-dichlorophenylamino)-benzenesulfonamide] | 56.8 ± 9 | 
4 | O=S(=O)(NCCO)c1cc(Nc2c(Cl)cc(Cl)cc2Cl)ccc1Cl [Example 18, 2-Chloro-N-(2-hydroxyethyl)-5-(2,4,6-trichlorophenylamino)benzensulfonamide] |  | Mean % Enhancement of KCNQ2/KCNQ3 (10 μM test compound, 5 minutes exposure, ambient temperature): 18.6 ± 4%
5 | O=S(=O)(NCCO)c1ccccc1Nc1c(Cl)cc(Cl)cc1Cl [Example 8, N-(2-Hydroxyethyl)-2-(2,4,6-trichlorophenylamino)-benzenesulfonamide] | 41.2 ± 9 | 
6 | O=S(=O)(Cc1ccccc1Nc1c(Cl)cccc1Cl)NCCOCCO [Example 1, 1-[2-(2,6-Dichlorophenylamino)phenyl]-N-[2-(2-hydroxyethoxy)ethyl]-methanesulfonamide] | 32.4 ± 18 | 
